{
  "source": "BindingDB's records for patent US20260049071",
  "about": "(Beyang Therapeutics Co., 2026)",
  "test_in_all_cases": "Testing of the Ability of Compounds to Inhibit VEGFR and EGFR Kinase",
  "key": {"[1]": {"target": "Epidermal growth factor receptor (Homo sapiens, UniProt P00533)", "sequence (P00533 whole entry)": "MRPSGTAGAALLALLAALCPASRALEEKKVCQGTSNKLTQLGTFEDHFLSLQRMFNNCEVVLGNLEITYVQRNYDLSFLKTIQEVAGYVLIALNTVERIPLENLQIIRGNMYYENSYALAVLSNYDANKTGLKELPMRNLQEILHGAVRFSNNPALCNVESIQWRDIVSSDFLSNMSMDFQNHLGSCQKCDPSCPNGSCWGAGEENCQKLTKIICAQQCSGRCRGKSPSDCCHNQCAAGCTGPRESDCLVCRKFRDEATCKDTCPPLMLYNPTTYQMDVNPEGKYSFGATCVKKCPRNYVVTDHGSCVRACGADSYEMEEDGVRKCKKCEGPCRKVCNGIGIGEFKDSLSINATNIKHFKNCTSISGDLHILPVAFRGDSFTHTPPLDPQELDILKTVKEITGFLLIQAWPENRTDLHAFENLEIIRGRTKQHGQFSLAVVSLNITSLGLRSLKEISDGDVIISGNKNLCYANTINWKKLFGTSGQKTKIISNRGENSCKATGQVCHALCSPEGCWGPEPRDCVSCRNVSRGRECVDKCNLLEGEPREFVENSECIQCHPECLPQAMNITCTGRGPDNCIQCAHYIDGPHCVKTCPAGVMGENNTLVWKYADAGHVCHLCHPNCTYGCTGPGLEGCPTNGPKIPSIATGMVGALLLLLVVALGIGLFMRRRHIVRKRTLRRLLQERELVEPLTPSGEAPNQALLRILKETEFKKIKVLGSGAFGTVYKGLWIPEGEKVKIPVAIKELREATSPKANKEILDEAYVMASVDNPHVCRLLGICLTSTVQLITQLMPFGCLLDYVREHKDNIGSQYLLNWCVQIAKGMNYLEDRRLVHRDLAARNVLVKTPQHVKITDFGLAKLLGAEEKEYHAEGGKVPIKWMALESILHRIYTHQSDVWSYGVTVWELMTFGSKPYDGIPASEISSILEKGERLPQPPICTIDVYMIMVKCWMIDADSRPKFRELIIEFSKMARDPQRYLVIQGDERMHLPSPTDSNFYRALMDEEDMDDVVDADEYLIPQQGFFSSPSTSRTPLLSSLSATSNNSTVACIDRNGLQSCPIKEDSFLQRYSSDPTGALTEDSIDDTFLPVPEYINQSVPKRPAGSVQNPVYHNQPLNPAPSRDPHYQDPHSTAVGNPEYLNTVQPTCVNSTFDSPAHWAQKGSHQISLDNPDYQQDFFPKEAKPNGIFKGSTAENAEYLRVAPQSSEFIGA", "procedure": "(§1) This assay directly monitored the ability of compounds to inhibit kinase phosphorylation by measuring non-phosphorylated and phosphorylated substrates in kinase reactions by using Mobility Shift Assays/IMAP™ analysis. Test Protocol and Procedures: Add the kinase and DTT to 1× kinase buffer to form a 2.5× kinase solution; transfer 10 μL of 2.5× kinase solution to a 384-well reaction plate and add 1× kinase buffer to negative control wells. Incubate the plate for 10 min at room temperature; add FAM-labeled peptides, MgCl2, ATP and other reagents to 1× kinase buffer to form a 2.5× substrate solution; transfer 10 μL of the above 2.5× substrate solution to the 384-well reaction plate; incubate the plate at 28° C. for different times,and add 25 μL of stop solution to the 384-well reaction plate to stop the reaction. Read the conversion ratio data on CaliperEZ Reader II."}, "[2]": {"target": "Vascular endothelial growth factor receptor 1 (Homo sapiens, UniProt P17948)", "sequence (P17948 whole entry)": "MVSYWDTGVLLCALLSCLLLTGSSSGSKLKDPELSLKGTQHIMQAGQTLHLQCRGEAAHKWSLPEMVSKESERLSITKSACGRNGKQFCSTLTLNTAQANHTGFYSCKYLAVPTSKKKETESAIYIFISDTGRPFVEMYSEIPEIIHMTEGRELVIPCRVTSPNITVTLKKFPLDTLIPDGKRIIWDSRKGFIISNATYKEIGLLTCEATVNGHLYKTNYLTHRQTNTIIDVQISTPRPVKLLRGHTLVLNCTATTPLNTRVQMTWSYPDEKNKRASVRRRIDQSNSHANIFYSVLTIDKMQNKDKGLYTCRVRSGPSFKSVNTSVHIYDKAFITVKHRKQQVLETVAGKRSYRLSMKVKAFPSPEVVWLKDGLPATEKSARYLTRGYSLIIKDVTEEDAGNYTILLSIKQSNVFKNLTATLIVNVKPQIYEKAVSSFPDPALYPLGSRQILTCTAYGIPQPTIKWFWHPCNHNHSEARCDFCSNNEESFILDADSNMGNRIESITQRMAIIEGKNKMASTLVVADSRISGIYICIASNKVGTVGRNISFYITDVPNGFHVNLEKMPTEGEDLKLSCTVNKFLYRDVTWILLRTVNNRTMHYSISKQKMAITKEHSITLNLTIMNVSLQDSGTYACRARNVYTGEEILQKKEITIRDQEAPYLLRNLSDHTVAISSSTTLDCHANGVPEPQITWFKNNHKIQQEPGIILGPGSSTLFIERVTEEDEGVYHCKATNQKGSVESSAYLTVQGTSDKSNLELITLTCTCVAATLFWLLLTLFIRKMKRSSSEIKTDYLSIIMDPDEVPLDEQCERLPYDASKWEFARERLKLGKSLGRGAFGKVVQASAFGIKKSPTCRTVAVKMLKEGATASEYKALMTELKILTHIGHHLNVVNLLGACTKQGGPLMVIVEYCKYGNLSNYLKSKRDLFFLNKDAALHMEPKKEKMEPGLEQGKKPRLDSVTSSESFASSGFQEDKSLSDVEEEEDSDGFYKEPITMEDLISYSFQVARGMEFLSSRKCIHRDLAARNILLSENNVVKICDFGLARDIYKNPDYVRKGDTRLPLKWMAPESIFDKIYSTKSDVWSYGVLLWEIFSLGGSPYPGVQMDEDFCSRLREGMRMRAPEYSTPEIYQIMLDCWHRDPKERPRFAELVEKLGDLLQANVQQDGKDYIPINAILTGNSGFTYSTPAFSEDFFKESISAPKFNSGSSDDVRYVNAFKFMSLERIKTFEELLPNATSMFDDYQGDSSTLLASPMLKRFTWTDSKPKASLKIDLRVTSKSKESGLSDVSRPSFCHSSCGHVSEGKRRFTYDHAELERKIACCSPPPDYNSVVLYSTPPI", "procedure": "as §1"}, "[3]": {"target": "Vascular endothelial growth factor receptor 3 (Homo sapiens, UniProt P35916)", "sequence (P35916 whole entry)": "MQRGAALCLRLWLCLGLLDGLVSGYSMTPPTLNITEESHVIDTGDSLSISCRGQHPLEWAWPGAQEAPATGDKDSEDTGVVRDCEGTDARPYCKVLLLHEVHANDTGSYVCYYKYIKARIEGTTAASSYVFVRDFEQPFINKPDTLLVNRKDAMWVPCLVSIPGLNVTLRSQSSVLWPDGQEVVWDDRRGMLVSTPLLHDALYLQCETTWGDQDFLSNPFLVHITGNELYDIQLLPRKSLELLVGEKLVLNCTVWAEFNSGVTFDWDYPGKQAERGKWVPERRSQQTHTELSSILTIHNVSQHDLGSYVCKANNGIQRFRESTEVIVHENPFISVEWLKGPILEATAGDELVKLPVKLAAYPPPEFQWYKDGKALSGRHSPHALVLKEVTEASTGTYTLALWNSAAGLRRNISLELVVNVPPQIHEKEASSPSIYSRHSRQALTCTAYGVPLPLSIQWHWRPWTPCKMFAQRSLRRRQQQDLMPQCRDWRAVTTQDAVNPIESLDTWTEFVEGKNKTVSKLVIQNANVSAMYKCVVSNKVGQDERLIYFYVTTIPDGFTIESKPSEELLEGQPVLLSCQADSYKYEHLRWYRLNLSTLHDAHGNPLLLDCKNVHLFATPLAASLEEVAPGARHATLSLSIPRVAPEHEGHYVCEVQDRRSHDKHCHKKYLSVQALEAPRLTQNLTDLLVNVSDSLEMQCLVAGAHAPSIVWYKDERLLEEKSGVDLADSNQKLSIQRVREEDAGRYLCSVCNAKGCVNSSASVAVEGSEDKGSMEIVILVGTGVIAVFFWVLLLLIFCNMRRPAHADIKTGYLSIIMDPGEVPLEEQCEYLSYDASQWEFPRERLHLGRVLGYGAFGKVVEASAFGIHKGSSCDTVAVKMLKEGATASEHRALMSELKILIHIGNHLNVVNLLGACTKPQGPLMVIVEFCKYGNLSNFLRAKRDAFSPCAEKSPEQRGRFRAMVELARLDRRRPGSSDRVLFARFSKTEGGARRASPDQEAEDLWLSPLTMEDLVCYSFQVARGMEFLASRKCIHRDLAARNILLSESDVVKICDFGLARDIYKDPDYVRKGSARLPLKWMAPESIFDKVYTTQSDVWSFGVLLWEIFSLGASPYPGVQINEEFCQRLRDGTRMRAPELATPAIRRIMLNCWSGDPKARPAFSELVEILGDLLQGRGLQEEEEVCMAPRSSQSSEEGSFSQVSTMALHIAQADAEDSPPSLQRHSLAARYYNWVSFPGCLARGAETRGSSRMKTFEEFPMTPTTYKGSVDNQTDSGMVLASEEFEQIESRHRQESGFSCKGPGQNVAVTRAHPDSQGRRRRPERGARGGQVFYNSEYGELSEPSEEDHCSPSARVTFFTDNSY", "procedure": "as §1"}},
  "data": [
    {"smiles": "NC(=O)c1ccccc1Sc1ccc2c(/C=C/c3cnn(CCCN4CCCC4)c3)n[nH]c2c1", "note": "[US20260049071, No. I-44]", "values": [
      {"measurement": "IC50", "setting": "[1]", "value": "in the range around 33 µM"},
      {"measurement": "IC50", "setting": "[2]", "value": "1 to 10", "unit": "nM"},
      {"measurement": "IC50", "setting": "[3]", "value": "10 to 100", "unit": "nM"}
    ]}
  ]
}
